The results in this text go back to ChEMBL document CHEMBL1130762, “Structure-activity relationships of a series of 1-substituted-4-methylbenzimidazole neuropeptide Y-1 receptor antagonists” (Bioorg Med Chem Lett, 1998).

“And” between values parts separate entries of the source, which are not always exact repeats. Equal entries are not always repeated.

For the first assay, the target named is T1, Neuropeptide Y receptor type 1 (Homo sapiens, UniProt P25929).
T1 sequence (P25929 whole entry): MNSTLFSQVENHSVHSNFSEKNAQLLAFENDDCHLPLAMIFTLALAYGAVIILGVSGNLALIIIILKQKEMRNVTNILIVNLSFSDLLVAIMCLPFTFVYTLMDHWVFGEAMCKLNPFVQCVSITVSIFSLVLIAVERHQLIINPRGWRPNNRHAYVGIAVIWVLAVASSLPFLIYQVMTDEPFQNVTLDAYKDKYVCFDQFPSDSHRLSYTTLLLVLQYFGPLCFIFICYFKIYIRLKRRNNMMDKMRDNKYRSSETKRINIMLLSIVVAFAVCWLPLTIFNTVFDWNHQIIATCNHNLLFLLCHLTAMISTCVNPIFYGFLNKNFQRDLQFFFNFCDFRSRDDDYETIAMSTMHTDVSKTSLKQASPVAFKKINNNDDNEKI
In words: Binding affinity at cloned Neuropeptide Y receptor type 1 expressed in AV-12 cells is evaluated. It is filed as cell-based, AV12.
Turning to `Clc1ccc(OCc2nc3c(OCCCN4CCCCC4)cccc3n2CCCC2CCCNC2)cc1` (stereo unspecified), the inhibitory constant (Ki) stood at 2 nM. This lies in the single-digit nanomolar range.

For another assay, the system named is SK-N-MC. In words: Inhibition of NPY induced intracellular Ca++ mobilization in SK-N-MC cells is evaluated. It is filed as functional, cell-based, Homo sapiens.
In turn, `Cc1cccc2c1nc(COc1ccc(Cl)cc1)n2CCCC1CCN(CCCN2CCCCC2)CC1` gave a Ki of 26 nM.

The target of another assay is T1, Neuropeptide Y receptor type 1. In words: Binding affinity at cloned Neuropeptide Y-1 receptor expressed in AV-12 cells is evaluated. It counts as cell-based, AV12.
Compound `Cc1cccc2c1nc(COc1ccc(Cl)cc1)n2CCCC1CCN(CCCN2CCCCC2)CC1` showed an inhibition constant (Ki) of 4.5 nM. That is a single-digit nanomolar value.

`Cc1cccc2c1nc(COc1ccc(Cl)cc1)n2CCCC1CCN(CCCC(N)=O)CC1` came in with a Ki of 88 nM.

On to `Cc1cccc2c1nc(COc1ccc(Cl)cc1)n2CCCC1CCN(Cc2ccccc2)CC1`, for which the Ki is 109 nM.

On to `Cc1cccc2c1nc(COc1ccc(Cl)cc1)n2CCCC1CCN(CCC(C)C)CC1`, for which the Ki worked out at 11 nM.

For `Cc1cccc2c1nc(COc1ccc(Cl)cc1)n2CCCC1CCN(CC(=O)N2CCCCC2)CC1`, the inhibitory constant (Ki) was determined as 136 nM.

In the case of `Cc1cccc2c1nc(COc1ccc(Cl)cc1)n2CCCC1CCNCC1`, the Ki amounted to 335 nM. This Ki lies about 2.5-fold higher than the previous one.

Regarding `CCOC(=O)CN1CCC(CCCn2c(COc3ccc(Cl)cc3)nc3c(C)cccc32)CC1`, the Ki worked out at 427 nM.

In the case of `CCCN1CCC(CCCn2c(COc3ccc(Cl)cc3)nc3c(C)cccc32)CC1`, the inhibitory constant (Ki) came out at 29 nM. Against the preceding compound, the Ki is about 15-fold lower.

`Cc1cccc2c1nc(COc1ccc(Cl)cc1)n2CCCC1CCN(C(=O)CCN2CCCCC2)CC1`: the Ki stood at 260 nM. Against the preceding compound, the Ki is about 9-fold higher.

`Cc1cccc2c1nc(COc1ccc(Cl)cc1)n2CCCC1CCN(CCc2ccccc2)CC1` gave an inhibition constant (Ki) of 29 nM.

`Cc1cccc2c1nc(COc1ccc(Cl)cc1)n2CCCC1CCN(CCCC(=O)N2CCCCC2)CC1`: the Ki amounted to 21 nM.

`CCOC(=O)CCCN1CCC(CCCn2c(COc3ccc(Cl)cc3)nc3c(C)cccc32)CC1`: the Ki turned out to be 29 nM.

With `Cc1cccc2c1nc(COc1ccc(Cl)cc1)n2CCCC1CCN(CCN2CCCCC2)CC1`, the inhibitory constant (Ki) amounted to 37 nM. The Ki values of the last two compounds are within 1.5-fold of each other.

On to `Cc1cccc2c1nc(COc1ccc(Cl)cc1)n2CCCC1CCN(CCCc2ccccc2)CC1`, for which the affinity, expressed as Ki, was 57 nM.

On to `Cc1cccc2c1nc(COc1ccc(Cl)cc1)n2CCCC1CCN(CC(=O)O)CC1`, for which affinity was put at a Ki of 2190 nM. Compared with the last compound, the Ki is about 38-fold higher.

For the compound `Cc1cccc2c1nc(COc1ccc(Cl)cc1)n2CCCC1CCN(CCCC(=O)O)CC1`, the Ki was determined as 1630 nM.

For `Cc1cccc2c1nc(COc1ccc(Cl)cc1)n2CCCC1CCN(CCCCN2CCCCC2)CC1`, the inhibition constant Ki is 52 nM and 5.7 nM.

`Cc1cccc2c1nc(COc1ccc(Cl)cc1)n2CCCC1CCN(C)CC1` returned a Ki of 52 nM.

A further assay has as its system SK-N-MC. In words: Tested to reverse NPY induced inhibition of forskolin-stimulated cAMP in SK-N-MC cells is evaluated. It counts as functional, cell-based, Homo sapiens.
Turning to `Cc1cccc2c1nc(COc1ccc(Cl)cc1)n2CCCC1CCN(CCCN2CCCCC2)CC1`, the affinity corresponds to a Ki of 46 nM.
